Molecular target: T1, JNK3 (Homo sapiens, UniProt P53779)
T1 construct: made in house
Assay: Inhibition of ATP hydrolysis by JNK3 (coupled NADH oxidation assay)
Format: biochemical
Settings: ATP hydrolysis by JNK3, 100 nM JNK3, pH 7.6, 1% DMSO
Description: To measure the inhibitory activity of the Z1208, we used the following assay system: adenosine triphosphate (ATP), phosphoenolpyruvate (PEP), nicotinamide adenine dinucleotide (NADH), and a solution mixture of pyruvate kinase and L-lactate dehydrogenase (PK-L-LDH) were purchased from Roche Diagnostics. Other reagents were purchased from Sigma-Aldrich. JNK3 was expressed and purified by the method of Xie et al.. After a purification step, JNK3 was activated by GST-fused MKK7 and further purified against a glutathione-fixed column. […] The conversion of NADH was measured by kinetic monitoring with SpectraMax 190 (Molecular Devices).

T1 sequence (P53779 40-402 limits assumed): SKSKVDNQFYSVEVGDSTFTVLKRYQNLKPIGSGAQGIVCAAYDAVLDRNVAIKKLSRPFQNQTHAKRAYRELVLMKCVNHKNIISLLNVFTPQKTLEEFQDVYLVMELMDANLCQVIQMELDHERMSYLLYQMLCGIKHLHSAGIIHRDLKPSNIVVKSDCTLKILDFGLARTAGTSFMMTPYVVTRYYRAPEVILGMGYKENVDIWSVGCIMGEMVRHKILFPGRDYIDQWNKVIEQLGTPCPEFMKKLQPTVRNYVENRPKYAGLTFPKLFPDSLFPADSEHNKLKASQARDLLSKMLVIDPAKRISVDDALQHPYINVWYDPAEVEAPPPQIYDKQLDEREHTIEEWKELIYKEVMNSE

CN1c2c[nH]nc2C(O)=C(C(=O)Nc2ccc(Cl)c(Cl)c2)S1(=O)=O [Z1208-8]
IC50: 62.9 µM

Source: PMC6264460, “Lead Generation and Optimization Based on Protein-Ligand Complementarity” (Molecules, 2010)
